Source: patent publication US5321030A, “Creatine analogs having antiviral activity” (priority 1991, dated 1994)
In brackets after ≈: the same amount, converted by molar mass. Several values for one entry are separate records, joined by “and”; a condition that tells them apart may be missing. Equal entries are not always repeated. Where two headings read alike, the source gives them in different places.

Columns and labels:
HSV-1 [1] = assay: Plaque assay, plaquing efficiency of HSV-1 in serum-starved Vero cells; assay type: cell-based, Herpes Simplex Type I (HSV-1)
Method: Plaque assays were performed on confluent, serum-starved monolayers of Vero cells in 100 mm dishes (Corning). Growth medium was removed by aspiration and 10 ml of low serum media was added. Monolayers were grown in this medium for 5 days. […] After incubation, the inoculum was removed by aspiration and replaced with 2 ml of agarose-medium maintained at 42° C. The agarose-medium overlay contained a fresh 1:1 mixture of: […] A plaque assay was used to confirm the antiviral activity of cyclocreatine detected in the cytopathogenicity studies described above. Vero cells were grown in 100 mm dishes and were serum-starved. Each dish, with the exception of uninfected controls, was inoculated with HSV-1 virus and incubated with various concentrations of cyclocreatine until plaques appeared in the plates exposed to virus alone.

[2] = Dietary feeding of cyclocreatine, tolerance and uptake; conditions: mice, up to 1% of diet for 2 weeks or over 4 weeks
[3] = system: Murine Cytomegalovirus (MCMV), strain Smith; assay: Plaque reduction, murine cytomegalovirus in C127I cells; assay type: cell-based; conditions: Murid betaherpesvirus 1; 10 mg/ml
in vitro [4] = conditions: monkey, vero cells
[5] = system: Influenza A/Port Chalmers/1/73 (H3 N2); assay: CPE-reduction assay, Influenza A in MDCK cells; assay type: cell-based; conditions: 62.5 μg/ml-4 mg/ml
[6] = system: HCMV, strain C8704 (DHPG resistant); assay: microbe, parasite or virus in culture; assay type: cell-based, Human Cytomegalovirus; design: TI50 (CD50 ÷ ED50): unit not given beside the values; conditions: for # Plaques: virus control 91.0 ± 8.4
[7] = system: Guinea Pig Cytomegalovirus, Strain 22122; assay: CPE reduction assay, guinea pig cytomegalovirus in GPE cells; assay type: cell-based; design: TI50 (CD50 ÷ ED50): unit not given here; conditions: for Average CPE: virus controls 4.0
HSV-1 [8] = assay: Cytopathic effect (CPE) assay, HSV-1
[9] = system: Vesicular stomatitis virus (VSV), Indiana strain; assay type: cell-based; conditions: 62.5 μg/ml-4 mg/ml; Vero cells and BHK-21 cells; scale 0-4; no drug controls 4.0
[10] = system: HCMV, strain C8805-37 (DHPG resistant); assay: microbe, parasite or virus in culture; assay type: cell-based, Human Cytomegalovirus; design: TI50 (CD50 ÷ ED50): unit not given beside the values; conditions: for # Plaques: virus control 11.5 ± 2.1
Adenovirus type 5 = assay: CPE assay, adenovirus in DU 145 cells; assay type: cell-based; conditions: 0.3125-10 mg/ml, FIG. 15A
Method: Adenovirus type 5 was obtained from the ATCC. DU 145 cells were obtained from the American Type Culture Collection. Cells were infected with virus and cyclocreatine was assayed for antiviral activity using the cytopathic effect (CPE) assay essentially as described in Example 1.

creatine kinase = creatine kinase (Oryctolagus cuniculus, UniProt P00563); conditions: cited from earlier work
[11] = system: Varicella-Zoster Virus, strain Oka; assay: microbe, parasite or virus in culture; assay type: cell-based; design: TI50 (CD50 ÷ ED50): unit not given beside the values
in vitro [12] = conditions: monkey, vero cells; remark: listed apart in the source
DU 145 cells = assay: Drug cytotoxicity in CPE assay, DU 145 cells; conditions: 10 mg/ml, 0 PFUs
[13] = Human alphaherpesvirus 3, CV-1, read-out: % Reduction
[14] = Human alphaherpesvirus 3, MRC5, read-out: % Reduction

Sequence of creatine kinase (P00563 whole entry): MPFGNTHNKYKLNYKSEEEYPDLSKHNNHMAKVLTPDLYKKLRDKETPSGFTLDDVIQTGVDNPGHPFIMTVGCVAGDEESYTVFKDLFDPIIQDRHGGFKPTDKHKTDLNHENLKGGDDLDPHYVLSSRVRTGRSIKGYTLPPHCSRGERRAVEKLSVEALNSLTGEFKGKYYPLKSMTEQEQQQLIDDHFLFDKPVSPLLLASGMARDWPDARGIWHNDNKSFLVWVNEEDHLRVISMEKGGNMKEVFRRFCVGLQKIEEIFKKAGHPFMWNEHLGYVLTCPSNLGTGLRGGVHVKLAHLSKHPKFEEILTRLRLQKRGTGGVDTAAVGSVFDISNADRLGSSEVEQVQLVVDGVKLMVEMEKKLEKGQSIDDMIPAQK

NC1=NCCN1CC(=O)O [cyclocreatine, 1-carboxymethyl-2-iminoimidazolidine]
effect on plaquing efficiency (HSV-1 [1]; FIG. 9): reduced the plaquing efficiency
number of plaques (HSV-1 [1]; second experiment, 4 mg/ml (755 at 0 mg/ml)): 120
tolerance of dietary cyclocreatine [2]: without gross adverse effects
inhibition at 10000 µg/mL [3]: 53%
CC50 (in vitro [4]): > 4000 µg/mL and > 28 mM
antiviral activity [5]: did not display significant antiviral activity
# Plaques ([6]; AM 285 156.25 μg/ml): 81
# Plaques ([6]; AM 285 312.5 μg/ml): 65.5
# Plaques ([6]; AM 285 625 μg/ml): 52.5
# Plaques ([6]; AM 285 1250 μg/ml): 48.5
# Plaques ([6]; AM 285 2500 μg/ml): 14.5
# Plaques ([6]; AM 285 5000 μg/ml): 3.5
# Plaques ([6]; AM 285 10000 μg/ml): 0
inhibition at 156.25 µg/mL ([6]; Human betaherpesvirus 5, MRC5, AM 285 156.25 μg/ml, read-out: % Reduction): 0%
inhibition at 312.5 µg/mL ([6]; Human betaherpesvirus 5, MRC5, AM 285 312.5 μg/ml, read-out: % Reduction): 28%
inhibition at 625 µg/mL ([6]; Human betaherpesvirus 5, MRC5, AM 285 625 μg/ml, read-out: % Reduction): 42%
inhibition at 1250 µg/mL ([6]; Human betaherpesvirus 5, MRC5, AM 285 1250 μg/ml, read-out: % Reduction): 47%
inhibition at 2500 µg/mL ([6]; Human betaherpesvirus 5, MRC5, AM 285 2500 μg/ml, read-out: % Reduction): 84%
inhibition at 5000 µg/mL ([6]; Human betaherpesvirus 5, MRC5, AM 285 5000 μg/ml, read-out: % Reduction): 96%
inhibition at 10000 µg/mL ([6]; Human betaherpesvirus 5, MRC5, AM 285 10000 μg/ml, read-out: % Reduction): 100%
EC50 ([6]; Human betaherpesvirus 5, MRC5, MRC-5 cells, Table 6, read-out: ED50 (the source's name)): 900 µg/mL (≈ 6.29 mM)
TI50 (CD50 ÷ ED50) ([6]; MRC-5 cells, Table 6): > 11.1
Average CPE ([7]; AM-285 156.25 μg/ml): 4.0
Average CPE ([7]; AM-285 312.5 μg/ml): 4.0
Average CPE ([7]; AM-285 625 μg/ml): 3.5
Average CPE ([7]; AM-285 1250 μg/ml): 3.3
Average CPE ([7]; AM-285 2500 μg/ml): 2.5
Average CPE ([7]; AM-285 5000 μg/ml): 1.7
Average CPE ([7]; AM-285 10000 μg/ml): 0.0
EC50 ([7]; Caviid betaherpesvirus 2, GPE cells, Table 3, read-out: ED50 (the source's name)): 3270 µg/mL (≈ 22.9 mM)
TI50 (CD50 ÷ ED50) ([7]; GPE cells, Table 3): > 3.0
effect on CPE ([7]; between 0.625 and 5.0 mg/ml): An inhibitory effect
EC50 (HSV-1 [8]; Human alphaherpesvirus 1, Vero, read-out: 50% effective dose (ED50)): 1270 µg/mL and ~9 mM
IC20 (HSV-1 [8]; Human alphaherpesvirus 1, Vero, read-out: concentration required for ~20% inhibition): 35 mM
EC65 (HSV-1 [8]; Human alphaherpesvirus 1, Vero, read-out: dose required to inhibit cytopathogenicity by 65%): 35 mM
effect on percent monolayer cell death, second set of experiments (HSV-1 [8]; Vero cells, 0-200 PFU, series of concentrations): consistent dose-dependent inhibition
dose response against cytopathogenicity (HSV-1 [8]; Vero cells, 0.31-5.0 mg/ml, FIG. 16): shows a dose response
effect on cytopathic effect (HSV-1 [8]; contact-inhibited A459 cells, FIG. 7A): inhibited the cytopathic effect
effect on cytopathic effect (HSV-1 [8]; contact-inhibited BalbC/3T3 cells, FIG. 3A): inhibited the cytopathic effect
effect on cytopathic effect (HSV-1 [8]; serum-starved DU145 cells, FIG. 5A): inhibited the cytopathic effect
therapeutic index (HSV-1 [8]; serum-starved Vero cells): > 7.6
effect on cytopathic effect (HSV-1 [8]; serum-starved Vero cells, 0.71-4.0 mg/ml, FIG. 1A): inhibited the cytopathic effect
CPE grade [9]: 4.0
# Plaques ([10]; AM-285 156.25 μg/ml): 9.5
# Plaques ([10]; AM-285 312.5 μg/ml): 12
# Plaques ([10]; AM-285 625 μg/ml): 10.5
# Plaques ([10]; AM-285 1250 μg/ml): 9.5
# Plaques ([10]; AM-285 2500 μg/ml): 6.5
# Plaques ([10]; AM-285 5000 μg/ml): 1.5
# Plaques ([10]; AM-285 10000 μg/ml): 0
inhibition at 156.25 µg/mL ([10]; Human betaherpesvirus 5, MRC5, AM-285 156.25 μg/ml, read-out: % Reduction): 0%
inhibition at 312.5 µg/mL ([10]; Human betaherpesvirus 5, MRC5, AM-285 312.5 μg/ml, read-out: % Reduction): 0%
inhibition at 625 µg/mL ([10]; Human betaherpesvirus 5, MRC5, AM-285 625 μg/ml, read-out: % Reduction): 0%
inhibition at 1250 µg/mL ([10]; Human betaherpesvirus 5, MRC5, AM-285 1250 μg/ml, read-out: % Reduction): 0%
inhibition at 2500 µg/mL ([10]; Human betaherpesvirus 5, MRC5, AM-285 2500 μg/ml, read-out: % Reduction): 43%
inhibition at 5000 µg/mL ([10]; Human betaherpesvirus 5, MRC5, AM-285 5000 μg/ml, read-out: % Reduction): 87%
inhibition at 10000 µg/mL ([10]; Human betaherpesvirus 5, MRC5, AM-285 10000 μg/ml, read-out: % Reduction): 100%
EC50 ([10]; Human betaherpesvirus 5, MRC5, MRC-5 cells, Table 7, read-out: ED50 (the source's name)): 2780 µg/mL (≈ 19.4 mM)
TI50 (CD50 ÷ ED50) ([10]; MRC-5 cells, Table 7): > 3.6
effect on cytopathic effect (Adenovirus type 5): inhibited the cytopathic effect
Vmax/Km ratio relative to creatine (creatine kinase; forward reaction in vitro): approximately one-fifth
initial rate of phosphorylation by creatine kinase, % of that of creatine (creatine kinase; in vitro, forward reaction): 31%
Vmax, % of that of creatine (creatine kinase; measured at 1° C.): 90%
Ki (creatine kinase; reverse reaction at 1° C., read-out: Ki, competitive inhibitor of P-creatine): 44 mM
TI50 (CD50 ÷ ED50) ([11]; CV-1 cells, Table 9B): ~ 54
# Plaques ([11]; CV-1 cells, AM-285 156 μg/ml, virus control 70.25 ± 6.9): 28.5
# Plaques ([11]; CV-1 cells, AM-285 312.5 μg/ml, virus control 70.25 ± 6.9): 12
# Plaques ([11]; CV-1 cells, AM-285 625 μg/ml, virus control 70.25 ± 6.9): 3
# Plaques ([11]; CV-1 cells, AM-285 1250 μg/ml, virus control 70.25 ± 6.9): 1
# Plaques ([11]; CV-1 cells, AM-285 2500 μg/ml, virus control 70.25 ± 6.9): 0
# Plaques ([11]; CV-1 cells, AM-285 5000 μg/ml, virus control 70.25 ± 6.9): 0
# Plaques ([11]; CV-1 cells, AM-285 10000 μg/ml, virus control 70.25 ± 6.9): 0
inhibition at 156 µg/mL [11, 13]: 59%
inhibition at 312.5 µg/mL [11, 13]: 83%
inhibition at 625 µg/mL [11, 13]: 96%
inhibition at 1250 µg/mL [11, 13]: 98%
inhibition at 2500 µg/mL [11, 13]: 100%
inhibition at 5000 µg/mL [11, 13]: 100%
inhibition at 10000 µg/mL [11, 13]: 100%
EC50 ([11]; Human alphaherpesvirus 3, CV-1, read-out: ED50): < 156 µg/mL
EC50 ([11]; Human alphaherpesvirus 3, CV-1, read-out: ED50, approximate value in parentheses): ~107 µg/mL (≈ 0.747 mM)
inhibition at 62.5 µg/mL [11, 14]: 0%
inhibition at 125 µg/mL [11, 14]: 0%
inhibition at 260 µg/mL [11, 14]: 36%
inhibition at 500 µg/mL [11, 14]: 42%
inhibition at 1000 µg/mL [11, 14]: 71%
inhibition at 2000 µg/mL [11, 14]: 91%
inhibition at 4000 µg/mL [11, 14]: 100%
EC50 ([11]; Human alphaherpesvirus 3, MRC5, read-out: ED50): 564 µg/mL (≈ 3.94 mM)
TI50 (CD50 ÷ ED50) ([11]; MRC-5 cells, Table 9A): > 7.1
# Plaques ([11]; MRC-5 cells, AM-285 62.5 μg/ml, virus control 32.7 ± 9.3): 26
# Plaques ([11]; MRC-5 cells, AM-285 125 μg/ml, virus control 32.7 ± 9.3): 26
# Plaques ([11]; MRC-5 cells, AM-285 260 μg/ml, virus control 32.7 ± 9.3): 21
# Plaques ([11]; MRC-5 cells, AM-285 500 μg/ml, virus control 32.7 ± 9.3): 19
# Plaques ([11]; MRC-5 cells, AM-285 1000 μg/ml, virus control 32.7 ± 9.3): 9.5
# Plaques ([11]; MRC-5 cells, AM-285 2000 μg/ml, virus control 32.7 ± 9.3): 3
# Plaques ([11]; MRC-5 cells, AM-285 4000 μg/ml, virus control 32.7 ± 9.3): 0
CC50 (in vitro [12]): > 4000 µg/mL
cytotoxicity (DU 145 cells): some cytotoxicity
